Data: US4385055A, “2-Acetyl-and 2-propionylpyridine thiosemicarbazones as antimalarials” (The United States of America as represented by the …, priority 1981, dated 1983)
Converted amounts (≈) assume the structure as drawn. Like-named read-outs stand apart in the source and are kept apart here. One block for each compound: values may come before it.

Assays:
Assay type in all cases: cell-based
[1] = system: Neisseria gonorrhoeae; assay: Agar dilution MIC, Neisseria gonorrhoeae isolates (Test 3); settings: 24 h, read-out: Minimum Inhibitory Concentration
Method: Compounds were tested against six Neisseria gonorrhoeae isolates. The bacteria used were provided by the Department of Bacterial Diseases of the Walter Reed Army Institute of Research. The test procedure used was the agar dilution method in duplicate as outlined by J. C. Sherris on pages 411-412 (loc. cit.). GC Medium (Difco) with a 2% defined supplement added as described by D. S. Kellogg et al. [J. Bact. 85:1274-1279 (1963)] was used as the media. The compounds were dissolved in DMSO (1.0 mg/mL), diluted with GC broth (GC Medium without agar) to the appropriate concentration, and added to the GC Medium at 55°-56° C. The latter was then poured and allowed to solidify. A penicillin standard was also prepared with initial dilutions as described by J. C. Sherris followed by dilutions with GC broth and addition to the GC Medium at 55°-56° C. as above. The inoculum was 1:200 GC broth dilution of a suspension of colony isolates after the suspension was adjusted visually to the turbidity standard described by J. M. Matsen and A. L. Barr on page 422 in "Manual of Clinical Microbiology," 2nd ed., E. Lennette, E. H. Spaulding, and J. P. Truant, Ed. (American Society for Microbiology, Washington, D.C., 1974). The plates were inoculated with a replicator and incubated at 37° C. under 5-10% carbon dioxide.

[2] = system: Neisseria meningitidis; assay: Macro broth dilution MIC, Neisseria meningitidis isolates (Test 2); settings: Neisseria meningitidis, 24 h, read after 24 hours, read-out: Minimum Inhibitory Concentration
Method: Compounds were tested against five isolates of Neisseria meningitidis. The bacterial isolates were provided by the Department of Bacterial Diseases of the Walter Reed Army Institute of Research. The test procedure used was the macro broth dilution method in duplicate outlined by J. C. Sherris on pages 414-415 (loc. cit.). The test compounds and controls were prepared as in Test 1 above. Ampicillin and penicillin standards were initially diluted as described by J. C. Sherris on pages 411-412 (loc. cit.) followed by dilution with Mueller-Hinton broth. The tubes were incubated at 37° C. under 5-10% carbon dioxide.

[3] = system: Mycobacterium smegmatis; assay: MIC against Mycobacterium smegmatis strains (Test 4); settings: Mycolicibacterium smegmatis, read-out: Minimum Inhibitory Concentration
Method: Compounds were tested against four strains of Mycobacterium smegmatis. The test procedure used was as mentioned by N. E. Morrison [Int. J. of Leprosy 39:34-43 (1971)]. The strain numbers refer to Mycobacterium smegmatis ATCC 607, a DDS-resistant daughter strain, a Rifampin-resistant daughter strain, and a Clofazimine-resistant daughter strain, respectively.

[4] = system: Group D Enterococcus; assay: Macro broth dilution MIC, Group D Enterococcus isolates (Test 1); settings: 24 h, read after 24 hours, read-out: Minimum Inhibitory Concentration
Method: (§1) Compounds were tested against five isolates of Staphylococcus aureus and five isolates of Group D Enterococcus. The bacteria used were isolated from patients at the Walter Reed Army Medical Center, Washington, D.C. The test procedure used was the macro broth dilution method in duplicate as outlined by J. C. Sherris on pages 414-415 in "Manual of Clinical Microbiology," 2nd ed., E. Lennette, E. H. Spaulding, and J. P. Truant, Ed. (American Society for Microbiology, Washington, D.C., 1974). Each compound was dissolved in DMSO (12.8 mg/mL) and then diluted with Mueller-Hinton broth to obtain the desired dilutions. Tubes containing the highest quantities of DMSO with no compound present were run as controls.

[5] = system: Staphylococcus aureus; assay: Macro broth dilution MIC, Staphylococcus aureus isolates (Test 1); settings: 24 h, read after 24 hours, read-out: Minimum Inhibitory Concentration
Method: as §1

[6] = Neisseria gonorrhoeae isolate 135, read after 24 hours
[7] = Neisseria gonorrhoeae isolate 161, read after 24 hours
[8] = Neisseria gonorrhoeae isolate 278, read after 24 hours
[9] = Neisseria gonorrhoeae isolate 455, read after 24 hours
[10] = Neisseria gonorrhoeae isolate 456, read after 24 hours
[11] = Neisseria gonorrhoeae isolate 602, read after 24 hours
[12] = Neisseria meningitidis isolate 7957
[13] = Neisseria meningitidis isolate 7990
[14] = Neisseria meningitidis isolate 8005
[15] = Neisseria meningitidis isolate 8006
[16] = Neisseria meningitidis isolate 8011
[17] = ATCC607, Mycobacterium smegmatis strain I (ATCC 607)
[18] = Mycobacterium smegmatis strain II (DDS-resistant daughter strain)
[19] = Mycobacterium smegmatis strain III (Rifampin-resistant daughter strain)

Structure (SMILES): CC1(C)S[C@@H]2[C@H](NC(=O)[C@H](N)c3ccccc3)C(=O)N2[C@H]1C(=O)O [Ampicillin, reference compound]
- MIC [2, 12]: 0.008 µg/mL (≈ 0.0229 µM)
- MIC [2, 13]: 0.008 µg/mL (≈ 0.0229 µM)
- MIC [2, 14]: 0.008 µg/mL (≈ 0.0229 µM)
- MIC [2, 15]: 0.016 µg/mL (≈ 0.0458 µM)
- MIC [2, 16]: 0.016 µg/mL (≈ 0.0458 µM)

Structure (SMILES): Nc1ccc(S(=O)(=O)c2ccc(N)cc2)cc1 [DDS, reference compound]
- MIC [3, 17]: 2 µg/mL (≈ 8.05 µM)
- MIC [3, 18]: 400 µg/mL (≈ 1610 µM)

Structure (SMILES): CO[C@H]1/C=C/O[C@@]2(C)Oc3c(C)c(O)c4c(O)c(c(/C=N/N5CCN(C)CC5)c(O)c4c3C2=O)NC(=O)/C(C)=C\C=C\[C@H](C)[C@H](O)[C@@H](C)[C@@H](O)[C@@H](C)[C@H](OC(C)=O)[C@@H]1C [Rifampin, reference compound]
- MIC [3, 17]: 1 µg/mL (≈ 1.22 µM)
- MIC [3, 19]: 250 µg/mL (≈ 304 µM)

Structure (SMILES): CC(=NNC(=S)N1CCN(c2ccccn2)CC1)c1ccccn1.Cl.Cl [W, 1,4-Diaza-4-(2-pyridyl)cyclohexane-1-thiocarboxylic acid 2-[1-(2-pyridyl)-ethylidene]hydrazide dihydrochloride]
- MIC [3, 17]: 6 µg/mL
- MIC [3, 18]: 10 µg/mL
- MIC [3, 19]: 5 µg/mL
- MIC ([3]; Mycobacterium smegmatis strain IV (Clofazimine-resistant daughter strain)): 6 µg/mL

Next, values leading:

- MIC [1, 6]: 0.016 µg/mL (≈ 0.0677 µM)
- MIC [1, 7]: 0.004 µg/mL (≈ 0.0169 µM)
- MIC [1, 8]: 0.016 µg/mL (≈ 0.0677 µM)
- MIC [1, 9]: 0.008 µg/mL (≈ 0.0338 µM)
- MIC [1, 10]: 0.008 µg/mL (≈ 0.0338 µM)
- MIC [1, 11]: 0.008 µg/mL (≈ 0.0338 µM)
Structure (SMILES): CCC(=NNC(=S)N(C)C)c1ccccn1 [JJ, 2-Propionylpyridine 4,4-dimethyl-3-thiosemicarbazone]

- MIC [1, 6]: 0.031 µg/mL (≈ 0.0913 µM)
- MIC [1, 7]: < 0.008 µg/mL
- MIC [1, 8]: 0.031 µg/mL (≈ 0.0913 µM)
- MIC [1, 9]: 0.031 µg/mL (≈ 0.0913 µM)
- MIC [1, 10]: 0.016 µg/mL (≈ 0.0471 µM)
- MIC [1, 11]: 0.031 µg/mL (≈ 0.0913 µM)
- MIC [2, 12]: 0.062 µg/mL (≈ 0.183 µM)
- MIC [2, 13]: 0.062 µg/mL (≈ 0.183 µM)
- MIC [2, 14]: 1 µg/mL (≈ 2.95 µM)
- MIC [2, 15]: 0.062 µg/mL (≈ 0.183 µM)
- MIC [2, 16]: 0.125 µg/mL (≈ 0.368 µM)
Structure (SMILES): CC(=NNC(=S)N1CCN(c2ccccc2)CC1)c1ccccn1 [K, 1,4-Diaza-4-phenylcyclohexane-1-thiocarboxylic acid 2-[1-(2-pyridyl)ethylidene]hydrazide]

- MIC ([4]; Group D Enterococcus isolate I): 2 µg/mL (≈ 6.53 µM)
- MIC ([4]; Group D Enterococcus isolate II): 2 µg/mL (≈ 6.53 µM)
- MIC ([4]; Group D Enterococcus isolate III): 2 µg/mL (≈ 6.53 µM)
- MIC ([4]; Group D Enterococcus isolate IV): 4 µg/mL (≈ 13.1 µM)
- MIC ([4]; Group D Enterococcus isolate V): 2 µg/mL (≈ 6.53 µM)
- MIC [2, 12]: 0.062 µg/mL (≈ 0.202 µM)
- MIC [2, 13]: 0.125 µg/mL (≈ 0.408 µM)
- MIC [2, 14]: 0.5 µg/mL (≈ 1.63 µM)
- MIC [2, 15]: 0.062 µg/mL (≈ 0.202 µM)
- MIC [2, 16]: 0.5 µg/mL (≈ 1.63 µM)
- MIC ([5]; Staphylococcus aureus isolate I): 0.5 µg/mL (≈ 1.63 µM)
- MIC ([5]; Staphylococcus aureus isolate III): 1 µg/mL (≈ 3.26 µM)
- MIC ([5]; Staphylococcus aureus isolate IV): 0.5 µg/mL (≈ 1.63 µM)
- MIC ([5]; Staphylococcus aureus isolate V): 0.5 µg/mL (≈ 1.63 µM)
Structure (SMILES): CC(=NNC(=S)N(CC(C)C)CC(C)C)c1ccccn1 [O, 2-Acetylpyridine 4,4-diisobutyl-3-thiosemicarbazone]

- MIC [1, 6]: 0.008 µg/mL (≈ 0.0305 µM)
- MIC [1, 7]: 0.004 µg/mL (≈ 0.0152 µM)
- MIC [1, 8]: 0.008 µg/mL (≈ 0.0305 µM)
- MIC [1, 9]: 0.008 µg/mL (≈ 0.0305 µM)
- MIC [1, 10]: 0.008 µg/mL (≈ 0.0305 µM)
- MIC [1, 11]: 0.008 µg/mL (≈ 0.0305 µM)
Structure (SMILES): CC(=NNC(=S)N1CCCCC1)c1ccccn1 [GG, Piperidine-1-thiocarboxylic acid 2-[1-(2-pyridyl)ethylidene]hydrazide]
